Source: the CheMixHub viscosity set

Assay: xn = mol fraction of the nth substance listed

CCOC(=O)c1ccccc1 + Cc1ccccc1Cl
viscosity [mPa·s], 101 kPa
Details | 303.15 K | 313.15 K
x1 = 0.0262 | 0.899 | 0.753
x1 = 0.0785 | 0.926 | 0.772
x1 = 0.1304 | 0.952 | 0.793
x1 = 0.2081 | 0.996 | 0.826
x1 = 0.2594 | 1.022 | 0.846
x1 = 0.3343 | 1.067 | 0.881
x1 = 0.3851 | 1.099 | 0.906
x1 = 0.4613 | 1.149 | 0.945
x1 = 0.5356 | 1.208 | 0.99
x1 = 0.6108 | 1.274 | 1.041
x1 = 0.709 | 1.375 | 1.12
x1 = 0.8085 | 1.497 | 1.215
x1 = 0.9045 | 1.635 | 1.323

C1=CCCCC1 + ClC(Cl)(Cl)Cl
303.15 K, 101 kPa
Details | viscosity [mPa·s]
x1 = 0.1014 | 0.875
x1 = 0.2018 | 0.839
x1 = 0.3213 | 0.8
x1 = 0.4018 | 0.775
x1 = 0.5046 | 0.74
x1 = 0.5562 | 0.722
x1 = 0.6526 | 0.688
x1 = 0.7514 | 0.653
x1 = 0.9049 | 0.603

CCCCCCCCCBr + ClC(Cl)(Cl)Cl
101 kPa
Details | viscosity [mPa·s]
297.75 K, x1 = 0.0486 | 0.9597
297.75 K, x1 = 0.0978 | 1.013
297.75 K, x1 = 0.1959 | 1.12
297.75 K, x1 = 0.3924 | 1.327
297.75 K, x1 = 0.5939 | 1.527
297.75 K, x1 = 0.7974 | 1.744
303.55 K, x1 = 0.0959 | 0.926
303.55 K, x1 = 0.2498 | 1.086
303.55 K, x1 = 0.3966 | 1.22
303.55 K, x1 = 0.5928 | 1.381
303.55 K, x1 = 0.7755 | 1.526
313.65 K, x1 = 0.0515 | 0.7651
313.65 K, x1 = 0.0985 | 0.8039
313.65 K, x1 = 0.1952 | 0.8852
313.65 K, x1 = 0.3592 | 1.028
313.65 K, x1 = 0.5926 | 1.189
313.65 K, x1 = 0.7767 | 1.301

c1cscn1 + ClC(Cl)(Cl)Cl
298.15 K, 101 kPa
Details | viscosity [mPa·s]
x1 = 0.1198 | 0.9186
x1 = 0.2066 | 0.9327
x1 = 0.2139 | 0.933
x1 = 0.2899 | 0.9459
x1 = 0.3525 | 0.9561
x1 = 0.4862 | 0.9809
x1 = 0.592 | 0.994
x1 = 0.689 | 1.007
x1 = 0.7728 | 1.01
x1 = 0.8194 | 1.011
x1 = 0.8719 | 1.011
x1 = 0.9315 | 1.006

N#CCc1ccccc1 + ClC(Cl)C(Cl)Cl
Details | viscosity [mPa·s]
313.15 K, 101 kPa, x1 = 0.7131 | 1.645

C1=CCCCC1 + ClC(Cl)Cl
303.15 K, 101 kPa
Details | viscosity [mPa·s]
x1 = 0.1005 | 0.62
x1 = 0.2478 | 0.604
x1 = 0.3282 | 0.595
x1 = 0.4351 | 0.585
x1 = 0.4917 | 0.581
x1 = 0.629 | 0.575
x1 = 0.7454 | 0.573
x1 = 0.8452 | 0.571

N#CCc1ccccc1 + ClC=C(Cl)Cl
Details | viscosity [mPa·s]
303.15 K, 101 kPa, x1 = 0.819 | 1.455

N#CCc1ccccc1 + ClCCCl
101 kPa
Details | viscosity [mPa·s]
303.15 K, x1 = 0.9705 | 1.725
313.15 K, x1 = 0.648 | 1.165

O=[N+]([O-])[O-].[K+] + O
viscosity [mPa·s]
Details | x1 = 0.0009 | x1 = 0.0018 | x1 = 0.00893 | x1 = 0.0177 | x1 = 0.02 | x1 = 0.02631 | x1 = 0.03478 | x1 = 0.0431 | x1 = 0.05127
293.15 K, 101.3 kPa | 0.999 | 0.9967 | 0.9784 | 0.9678 | – | – | – | 0.9855 | 1.002
298.15 K, 101.3 kPa | – | 0.887 | 0.875 | – | – | – | 0.8802 | 0.8927 | 0.9095
303.15 K, 101.3 kPa | 0.7964 | 0.7957 | 0.7884 | 0.7866 | – | 0.791 | 0.8004 | 0.8138 | 0.8319
308.15 K, 101.3 kPa | 0.7193 | 0.7184 | 0.7156 | 0.7174 | – | 0.7235 | 0.7334 | – | 0.7636
318.15 K, 101.3 kPa | 0.5964 | 0.5967 | 0.5993 | 0.6038 | – | 0.6128 | – | 0.6376 | 0.6543
323.15 K, 101 kPa | – | – | – | – | 0.565 | – | – | – | –
